Reference: US8975015B2, “Antimicrobial compounds” (priority 2009, dated 2015)
≈ marks a conversion by molar mass, not a printed value. Where two headings read alike, the source gives them in different places.

Tests used:
[1] = tested on: Mycobacterium tuberculosis (replicating TB); experiment: microbe, parasite or virus in culture; format: cell-based; conditions: Mycobacterium tuberculosis, replicating TB, read-out: MABA MIC
[2] = tested on: non-replicating TB; experiment: microbe, parasite or virus in culture; format: cell-based, Mycobacterium tuberculosis; conditions: Mycobacterium tuberculosis, read-out: LORA MIC
[3] = format: in vitro ADME; conditions: simulated gi fluid
[4] = mouse, microsomes
[5] = format: in vitro ADME
Method: Compound P1 was also tested for stability in simulated intestinal fluid.

[6] = human, microsomes
[7] = tested on: cultured kidney cells from the African Green monkey; experiment: cells; format: cell-based; conditions: Chlorocebus sabaeus
[8] = tested on: M. smegmatis; experiment: MIC against M. smegmatis; format: cell-based; conditions: Mycolicibacterium smegmatis

NNC(=O)c1ccncc1 [Isoniazid, reference compound]
MIC [1]: 0.56 µM (≈ 0.0768 µg/mL)
MIC [2]: > 128 µM

O=C1C=Cc2nocc2/C1=C1/Nc2ccccc2C1=O [Example P1, 4-(3-oxoindolin-2-ylidene)benzo[c]isoxazol-5(4H)-one]
% P1 remaining ([3]; 0 h): 100%
% P1 remaining ([3]; 5 min): 99.2%
% P1 remaining ([3]; 25 min): 99.6%
% P1 remaining ([3]; 0.75 h): 101.3%
% P1 remaining ([3]; 65 min): 99.6%
% P1 remaining ([3]; 80 min): 97.0%
% P1 remaining ([3]; 100 min): 101.6%
% P1 remaining ([3]; 2 h): 102.1%
% P1 remaining ([3]; 140 min): 100.2%
MIC [1]: 0.49 µM (≈ 0.129 µg/mL)
half-life [4]: about 3 or 4 minutes
% P1 ([5]; 0 min): 100%
% P1 ([5]; 5 min): 99.9%
% P1 ([5]; 25 min): 95.4%
% P1 ([5]; 45 min): 97.7%
% P1 ([5]; 65 min): 92.1%
% P1 ([5]; 85 min): 86.2%
% P1 ([5]; 125 min): 86.8%
% P1 ([5]; 145 min): 83.5%
MIC ([2]; non-replicating TB): 0.48 µM (≈ 0.127 µg/mL)
half-life [6]: about 7 or 8 minutes
IC50 ([7]; African Green monkey kidney cells): > 50 µg/mL
IC50 ([7]; Table 7, reaction products of T4MO isoform I100V with feedstock): 20.8 µg/mL (≈ 78.8 µM)
MIC [8]: 4.05 µg/mL (≈ 15.3 µM)

O=C1C=Cc2nocc2/C1=C1/Nc2ccc(Cl)cc2C1=O [Example 3, 4-(5-chloro-3-oxoindolin-2-ylidene)benzo[c]isoxazol-5(4H)-one]
MIC ([1]; 8-0.03 μM test concentration): 0.82 µM (≈ 0.245 µg/mL)
MIC ([1]; 32-0.2 μM test concentration): 0.93 µM (≈ 0.278 µg/mL)
MIC ([2]; non-replicating TB): 0.83 µM (≈ 0.248 µg/mL)

O=C1C=Cc2nocc2/C1=C1/Nc2cc(Cl)ccc2C1=O [Example 2, 4-(6-chloro-3-oxoindolin-2-ylidene)benzo[c]isoxazol-5(4H)-one]
MIC ([1]; 8-0.03 μM test concentration): 1.9 µM (≈ 0.568 µg/mL)
MIC ([1]; 32-0.2 μM test concentration): 1.92 µM (≈ 0.573 µg/mL)

CO[C@H]1/C=C/O[C@@]2(C)Oc3c(C)c(O)c4c(O)c(c(/C=N/N5CCN(C)CC5)c(O)c4c3C2=O)NC(=O)/C(C)=C\C=C\[C@H](C)[C@H](O)[C@@H](C)[C@@H](O)[C@@H](C)[C@H](OC(C)=O)[C@@H]1C [Rifampin, reference compound]
MIC [1]: 0.06 µM (≈ 0.0494 µg/mL)
MIC [2]: 1.34 µM (≈ 1.1 µg/mL)
